Among the data in patent US6936585B2, “Corticotropin releasing factor 2 receptor agonists” (priority 2002, dated 2005) are Emax and EC50 values, retold here.

Where two headings read alike, the source gives them in different places. Peptide text beside a SMILES is read from it. Some results are limits rather than exact numbers.

The target in one assay is T1, CRF2R (Homo sapiens, UniProt Q13324).
T1 sequence (Q13324 1-411): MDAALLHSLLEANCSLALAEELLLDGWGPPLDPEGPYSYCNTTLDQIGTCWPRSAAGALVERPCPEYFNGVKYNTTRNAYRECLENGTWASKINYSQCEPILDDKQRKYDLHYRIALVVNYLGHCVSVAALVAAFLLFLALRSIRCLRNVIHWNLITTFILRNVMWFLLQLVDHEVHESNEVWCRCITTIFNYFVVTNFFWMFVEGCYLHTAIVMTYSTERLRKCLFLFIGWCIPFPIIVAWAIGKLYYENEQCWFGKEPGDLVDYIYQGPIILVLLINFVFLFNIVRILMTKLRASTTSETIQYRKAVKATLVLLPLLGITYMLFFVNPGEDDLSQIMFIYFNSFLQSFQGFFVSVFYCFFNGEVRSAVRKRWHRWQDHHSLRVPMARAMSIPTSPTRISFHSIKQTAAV
The assay can be described thus: CRF2R agonist activation (EC50 / Emax), called comparative CRF binding. The class given is cell-based. To be noted: for Emax: read-out: CRF2R Emax. An outline of the steps:
(§1)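 CRFR-expressing cells + peptide vs vehicle; read-out cAMP (lysate assay) or CRE-linked reporter expression (luciferase, CAT, fluorescent protein, alkaline phosphatase, etc.). Signal compared against vehicle-treated cells.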

Another assay addresses T2, CRF1R (Homo sapiens, UniProt P34998).
T2 sequence (P34998 24-415): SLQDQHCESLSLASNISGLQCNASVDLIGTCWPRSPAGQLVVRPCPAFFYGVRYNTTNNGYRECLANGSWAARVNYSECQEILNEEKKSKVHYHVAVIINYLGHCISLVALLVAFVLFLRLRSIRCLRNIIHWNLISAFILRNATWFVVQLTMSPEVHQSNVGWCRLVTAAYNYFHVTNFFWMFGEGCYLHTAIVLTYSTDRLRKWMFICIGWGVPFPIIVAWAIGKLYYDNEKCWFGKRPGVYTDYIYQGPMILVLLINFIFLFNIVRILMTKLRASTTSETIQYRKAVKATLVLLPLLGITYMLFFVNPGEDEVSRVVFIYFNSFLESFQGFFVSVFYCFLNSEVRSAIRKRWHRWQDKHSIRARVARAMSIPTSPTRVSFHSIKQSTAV
In words: CRF1R agonist activation (EC50 / Emax), called comparative CRF binding. The following applies: for Emax: read-out: CRF1R Emax. The format is cell-based. The gist of the method: as §1

As for `CC[C@H](C)[C@H](N)C(=O)N[C@H](C(=O)N[C@@H](CC(C)C)C(=O)N[C@@H](CO)C(=O)N[C@@H](CC(C)C)C(=O)N[C@@H](CC(=O)O)C(=O)N[C@H](C(=O)N1CCC[C@H]1C(=O)N[C@H](C(=O)NCC(=O)N[C@@H](CC(C)C)C(=O)N[C@@H](CC(C)C)C(=O)N[C@@H](CCC(N)=O)C(=O)N[C@H](C(=O)N[C@@H](CC(C)C)C(=O)N[C@@H](CC(C)C)C(=O)N[C@@H](CCC(=O)O)C(=O)N[C@@H](CCSC)C(=O)N[C@@H](C)C(=O)N[C@@H](CCCNC(=N)N)C(=O)N[C@@H](C)C(=O)N[C@@H](CCC(=O)O)C(=O)N[C@@H](CCC(N)=O)C(=O)N[C@@H](CC(C)C)C(=O)N[C@@H](C)C(=O)N[C@@H](CCC(N)=O)C(=O)N[C@@H](CCC(N)=O)C(=O)N[C@@H](C)C(=O)N[C@@H](Cc1c[nH]cn1)C(=O)N[C@@H](CO)C(=O)N[C@@H](CC(N)=O)C(=O)N[C@@H](CCCNC(=N)N)C(=O)N[C@@H](CCCCN)C(=O)N[C@@H](CC(C)C)C(=O)N[C@@H](CCSC)C(=O)N[C@@H](CCC(=O)O)C(=O)N[C@H](C(=O)N[C@H](C(N)=O)[C@@H](C)CC)[C@@H](C)CC)[C@@H](C)CC)[C@@H](C)CC)C(C)C)C(C)C` [compound 164] (H-IVLSLDVPIGLLQILLEMARAEQLAQQAHSNRKLMEII-NH2; N-terminus assumed), the Emax (commonly the greatest response seen or fitted, relative to the assay's reference) came out at 92% at CRF2R and 26% at CRF1R.
On to `CC[C@H](C)[C@H](N)C(=O)N[C@H](C(=O)N[C@@H](CC(C)C)C(=O)N[C@@H](CO)C(=O)N[C@@H](CC(C)C)C(=O)N[C@@H](CC(=O)O)C(=O)N[C@H](C(=O)N1CCC[C@H]1C(=O)N[C@H](C(=O)NCC(=O)N[C@@H](CC(C)C)C(=O)N[C@@H](CC(C)C)C(=O)N[C@@H](CCC(N)=O)C(=O)N[C@@H](CCC(=O)O)C(=O)N[C@H](C(=O)N[C@@H](CC(C)C)C(=O)N[C@@H](CCC(=O)O)C(=O)N[C@@H](CCSC)C(=O)N[C@@H](C)C(=O)N[C@@H](CCCNC(=N)N)C(=O)N[C@@H](C)C(=O)N[C@@H](CCC(=O)O)C(=O)N[C@@H](CCC(N)=O)C(=O)N[C@@H](CC(C)C)C(=O)N[C@@H](C)C(=O)N[C@@H](CCC(N)=O)C(=O)N[C@@H](CCC(N)=O)C(=O)N[C@@H](C)C(=O)N[C@@H](Cc1c[nH]cn1)C(=O)N[C@@H](CO)C(=O)N[C@@H](CC(N)=O)C(=O)N[C@@H](CCCNC(=N)N)C(=O)N[C@@H](CCCCN)C(=O)N[C@@H](CC(C)C)C(=O)N[C@@H](CCSC)C(=O)N[C@@H](CCC(=O)O)C(=O)N[C@H](C(=O)N[C@H](C(N)=O)[C@@H](C)CC)[C@@H](C)CC)C(C)C)[C@@H](C)CC)C(C)C)C(C)C` [compound 165] (H-IVLSLDVPIGLLQEVLEMARAEQLAQQAHSNRKLMEII-NH2), for which the figures for the Emax on CRF2R and on CRF1R were 75% and 19%, respectively.
For the compound `CC[C@H](C)[C@H](N)C(=O)N[C@H](C(=O)N[C@@H](CC(C)C)C(=O)N[C@@H](CO)C(=O)N[C@@H](CC(C)C)C(=O)N[C@@H](CC(=O)O)C(=O)N[C@H](C(=O)N1CCC[C@H]1C(=O)N[C@H](C(=O)NCC(=O)N[C@@H](CC(C)C)C(=O)N[C@@H](CC(C)C)C(=O)N[C@@H](CCC(N)=O)C(=O)N[C@H](C(=O)N[C@@H](CC(C)C)C(=O)N[C@H](C(=O)N[C@@H](CCC(=O)O)C(=O)N[C@H](C(=O)N[C@@H](CCC(=O)O)C(=O)N[C@@H](CCCCN)C(=O)N[C@@H](CCC(N)=O)C(=O)N[C@@H](CCC(=O)O)C(=O)N[C@@H](CCCCN)C(=O)N[C@@H](CCC(=O)O)C(=O)N[C@@H](CCCCN)C(=O)N[C@@H](CCC(N)=O)C(=O)N[C@@H](CCC(N)=O)C(=O)N[C@@H](C)C(=O)N[C@@H](C)C(=O)N[C@@H](CC(N)=O)C(=O)N[C@@H](CC(N)=O)C(=O)N[C@@H](C)C(=O)N[C@@H](CCCNC(=N)N)C(=O)N[C@H](C(=O)N[C@@H](CC(C)C)C(=O)N[C@@H](C)C(=O)N[C@@H](CCCNC(=N)N)C(=O)N[C@H](C(N)=O)C(C)C)[C@@H](C)CC)[C@@H](C)CC)[C@@H](C)CC)[C@@H](C)CC)[C@@H](C)CC)C(C)C)C(C)C` [compound 166] (H-IVLSLDVPIGLLQILIEIEKQEKEKQQAANNARILARV-NH2; N-terminus assumed), the results for the EC50 on CRF2R and on CRF1R (CRF1R EC50) were 3.7 nM and 437 nM, respectively. In addition, the Emax is 99% on CRF2R and 95% on CRF1R.
Turning to `CC[C@H](C)[C@H](N)C(=O)N[C@H](C(=O)N[C@@H](CC(C)C)C(=O)N[C@@H](CO)C(=O)N[C@@H](CC(C)C)C(=O)N[C@@H](CC(=O)O)C(=O)N[C@H](C(=O)N1CCC[C@H]1C(=O)N[C@H](C(=O)NCC(=O)N[C@@H](CC(C)C)C(=O)N[C@@H](CC(C)C)C(=O)N[C@@H](CCC(N)=O)C(=O)N[C@H](C(=O)N[C@@H](CC(C)C)C(=O)N[C@@H](CC(C)C)C(=O)N[C@@H](CCC(=O)O)C(=O)N[C@@H](CCC(N)=O)C(=O)N[C@@H](CCC(=O)O)C(=O)N[C@@H](CCCCN)C(=O)N[C@@H](CCC(N)=O)C(=O)N[C@@H](CCC(=O)O)C(=O)N[C@@H](CCCCN)C(=O)N[C@@H](CCC(=O)O)C(=O)N[C@@H](CCCCN)C(=O)N[C@@H](CCC(N)=O)C(=O)N[C@@H](CCC(N)=O)C(=O)N[C@@H](C)C(=O)N[C@H](C(=O)N[C@H](C(=O)N[C@@H](CC(N)=O)C(=O)N[C@@H](C)C(=O)N[C@@H](CCCNC(=N)N)C(=O)N[C@H](C(=O)N[C@@H](CC(C)C)C(=O)N[C@@H](C)C(=O)N[C@@H](CCCNC(=N)N)C(=O)N[C@H](C(N)=O)C(C)C)[C@@H](C)CC)[C@@H](C)O)[C@@H](C)O)[C@@H](C)CC)[C@@H](C)CC)C(C)C)C(C)C` [compound 167] (H-IVLSLDVPIGLLQILLEQEKQEKEKQQATTNARILARV-NH2; N-terminus assumed), the results for the Emax on CRF2R and at CRF1R were 100% and 15%, respectively.
For the compound `CC[C@H](C)[C@H](N)C(=O)N[C@H](C(=O)N[C@@H](CC(C)C)C(=O)N[C@@H](CO)C(=O)N[C@@H](CC(C)C)C(=O)N[C@@H](CC(=O)O)C(=O)N[C@H](C(=O)N1CCC[C@H]1C(=O)N[C@H](C(=O)NCC(=O)N[C@@H](CC(C)C)C(=O)N[C@@H](CC(C)C)C(=O)N[C@@H](CCC(N)=O)C(=O)N[C@H](C(=O)N[C@@H](CC(C)C)C(=O)N[C@H](C(=O)N[C@@H](CCC(=O)O)C(=O)N[C@H](C(=O)N[C@@H](CCC(=O)O)C(=O)N[C@@H](CCCCN)C(=O)N[C@@H](CCC(N)=O)C(=O)N[C@@H](CCC(=O)O)C(=O)N[C@@H](CCCCN)C(=O)N[C@@H](CCC(=O)O)C(=O)N[C@@H](CCCCN)C(=O)N[C@@H](CCC(N)=O)C(=O)N[C@@H](CCC(N)=O)C(=O)N[C@@H](C)C(=O)N[C@@H](C)C(=O)N[C@H](C(=O)N[C@H](C(=O)N[C@@H](CC(N)=O)C(=O)N[C@@H](C)C(=O)N[C@@H](CCCNC(=N)N)C(=O)N[C@H](C(=O)N[C@@H](CC(C)C)C(=O)N[C@@H](C)C(=O)N[C@@H](CCCNC(=N)N)C(=O)N[C@H](C(N)=O)C(C)C)[C@@H](C)CC)[C@@H](C)O)[C@@H](C)O)[C@@H](C)CC)[C@@H](C)CC)[C@@H](C)CC)[C@@H](C)CC)C(C)C)C(C)C` [compound 168] (H-IVLSLDVPIGLLQILIEIEKQEKEKQQAATTNARILARV-NH2; N-terminus assumed), the EC50 (commonly the midpoint of the concentration-response curve) on CRF2R (read-out: CRF2R EC50) is 4.9 nM; at CRF1R (read-out: CRF1R EC50), not below 1000 nM. For the same compound, the Emax worked out at 75% on CRF2R and 52% at CRF1R.
Turning to `CC[C@H](C)[C@H](NC(=O)[C@H](C)NC(=O)[C@H](CC(N)=O)NC(=O)[C@H](CCC(N)=O)NC(=O)[C@H](CCC(=O)O)NC(=O)[C@H](C)NC(=O)[C@H](CCCNC(=N)N)NC(=O)[C@H](CCC(=O)O)NC(=O)[C@H](CCCNC(=N)N)NC(=O)[C@H](CCC(N)=O)NC(=O)[C@H](CO)NC(=O)[C@H](CCC(N)=O)NC(=O)[C@@H](NC(=O)[C@H](CCCNC(=N)N)NC(=O)[C@H](C)NC(=O)[C@H](CC(C)C)NC(=O)[C@H](CCC(=O)O)NC(=O)[C@H](CC(C)C)NC(=O)[C@H](CC(C)C)NC(=O)[C@@H](NC(=O)[C@H](CCCNC(=N)N)NC(=O)[C@H](CC(C)C)NC(=O)[C@H](CC(C)C)NC(=O)[C@H](Cc1ccc(O)cc1)NC(=O)[C@@H](NC(=O)[C@@H]1CCCN1C(=O)[C@H](CC(C)C)NC(=O)[C@H](CC(=O)O)NC(=O)[C@@H](NC(=O)[C@H](CO)NC(=O)[C@H](CC(C)C)NC(=O)[C@H](CO)NC(=O)[C@@H]1CCCN1C(=O)[C@H](CC(N)=O)NC(=O)[C@@H](N)CC(=O)O)[C@@H](C)CC)[C@@H](C)O)[C@@H](C)O)[C@@H](C)O)C(=O)N[C@H](C(=O)N[C@@H](Cc1ccccc1)C(=O)N[C@@H](C)C(=O)N[C@@H](CO)C(=O)N[C@H](C(N)=O)C(C)C)[C@@H](C)CC` [compound 173] (H-DNPSLSIDLPTYLLRTLLELARTQSQRERAEQNAIIFASV-NH2), the Emax at CRF2R is 65.2%; on CRF1R, 6.05%.
